Results taken from paper PMC2568864, “Chemical Dissection of the Link between Streptozotocin, O-GlcNAc, and Pancreatic Cell Death” (Chemistry & Biology, 2008).

Target: T1, human O-GlcNAcase (hOGA) (Homo sapiens, UniProt O60502)
T1 construct: gene OGA; residues 53–916, GST fusion
T1 sequence (O60502 53-916): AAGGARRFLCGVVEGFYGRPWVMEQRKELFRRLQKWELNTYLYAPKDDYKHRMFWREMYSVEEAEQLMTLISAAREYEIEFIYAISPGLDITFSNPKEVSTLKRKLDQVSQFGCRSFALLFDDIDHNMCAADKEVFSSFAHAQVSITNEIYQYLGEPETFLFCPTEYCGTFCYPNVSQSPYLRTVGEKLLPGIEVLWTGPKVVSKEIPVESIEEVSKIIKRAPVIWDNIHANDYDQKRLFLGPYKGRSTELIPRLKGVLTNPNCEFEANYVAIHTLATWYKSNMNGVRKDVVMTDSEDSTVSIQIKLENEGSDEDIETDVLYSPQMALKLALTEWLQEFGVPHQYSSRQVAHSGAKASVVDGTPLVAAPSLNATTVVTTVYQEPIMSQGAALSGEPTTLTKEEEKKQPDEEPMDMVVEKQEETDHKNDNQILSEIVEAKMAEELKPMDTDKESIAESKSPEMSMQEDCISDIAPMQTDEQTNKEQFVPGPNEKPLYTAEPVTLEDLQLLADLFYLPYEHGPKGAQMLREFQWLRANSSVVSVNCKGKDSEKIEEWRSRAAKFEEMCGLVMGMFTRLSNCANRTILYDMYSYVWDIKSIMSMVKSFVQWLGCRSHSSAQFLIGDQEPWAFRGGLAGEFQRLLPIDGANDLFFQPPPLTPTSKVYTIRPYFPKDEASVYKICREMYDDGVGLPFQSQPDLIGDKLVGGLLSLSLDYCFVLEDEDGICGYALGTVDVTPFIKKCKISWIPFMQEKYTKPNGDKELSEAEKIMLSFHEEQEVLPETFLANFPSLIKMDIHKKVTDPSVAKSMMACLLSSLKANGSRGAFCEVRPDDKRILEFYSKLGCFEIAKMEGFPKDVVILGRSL
Experiment: steady-state kinetics with fluorogenic 4MU-GlcNAc, Lineweaver-Burk, competitive inhibition fit
Assay type: biochemical

For `CN(N=O)C(=O)N[C@H]1C(O)O[C@H](CO)[C@@H](O)[C@@H]1O` (stereo partly shown) [STZ, streptozotocin], the Ki was 64 ± 3 µM.
